Reference: PubChem BioAssay (NCI)
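All cell lines were grown in 96-well plates and treated with compound for 48 hours. At the GI50, growth is halved. TGI marks complete inhibition of growth.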

Legend:
Assay in all cases: NCI tumour cell line growth inhibition, 48 h
[1] = system: CCRF-CEM leukemia
[2] = system: COLO 205 colon
[3] = system: K-562 leukemia
[4] = system: MOLT-4 leukemia
[5] = system: OVCAR-8 ovarian
[6] = system: RPMI-8226 leukemia
[7] = system: SK-MEL-5 melanoma
[8] = system: SW-620 colon
[9] = system: U251 CNS
[10] = system: UACC-62 melanoma

Row | Structure (SMILES) | GI50 [1] [µM] | TGI [1] [µM] | GI50 [2] [µM] | TGI [2] [µM] | GI50 [3] [µM] | TGI [3] [µM] | GI50 [4] [µM] | TGI [4] [µM] | GI50 [5] [µM] | TGI [5] [µM] | GI50 [6] [µM] | TGI [6] [µM] | GI50 [7] [µM] | TGI [7] [µM] | GI50 [8] [µM] | TGI [8] [µM] | GI50 [9] [µM] | TGI [9] [µM] | GI50 [10] [µM] | TGI [10] [µM]
1 | Cc1cc2nc3c4cc([N+](=O)[O-])ccc4n(CCN(C)C)c3nc2cc1C | 0.642 | 21.3 | 0.363 | 2.48 | 0.366 | > 100 | 0.373 | 8.68 | 0.509 | > 88 | 0.459 | 3.19 | 1.02 | 2.21 | 0.301 | 7.19 | 0.48 | 11.9 | 0.594 | 2.13
2 | [Au+].c1c[n-]cn1.c1ccc([PH+](c2ccccc2)c2ccccc2)cc1 | 1.78 | 17.3 | 1.99 | 4.07 | 2.61 | 30.4 | 2.07 | 5.15 | 9.28 | 37.1 | 8.93 | > 90.8 | 3.08 | 14.4 | 1.81 | 3.28 | 3.77 | 26.2 | 5.17 | 29.2
3 | Cc1ccc(S(=O)(=O)OC2CSSCC2OS(=O)(=O)c2ccc(C)cc2)cc1 (stereo not given) | – | 28.3 | – | 26.6 | – | 47.6 | – | 7.61 | – | 26.1 | – | 46.3 | – | 29.7 | – | 29.6 | – | 27.2 | – | 24.6
4 | O=C(O)c1ccccc1C1c2ccc(Cl)cc2Oc2cc(Cl)ccc21 | – | > 100 | – | > 100 | – | > 100 | – | > 100 | – | > 100 | – | > 100 | – | > 100 | – | > 100 | – | > 100 | – | > 100
5 | NCCCCCCCCCn1c2c(c3ccccc3c1=O)C(=O)c1ccccc1-2 | 4.14 | > 50 | 10 | 25 | 7.42 | 32.3 | 4.1 | 40.4 | 12.5 | > 50 | 10.4 | 30.8 | 8.4 | 17.7 | 6.11 | 15.6 | 9.52 | 19.1 | 9.35 | 18.1
6 | C=C1CCC2(C(C)=O)COC1(C)O2 (stereo not given) | – | > 100 | – | > 100 | – | > 100 | – | > 100 | – | > 100 | – | > 100 | – | > 100 | – | > 100 | – | > 100 | – | > 100
7 | COc1c(OC)c(OC)c(-c2cc(=O)c3c(OC)c(OC)c(OC)c(OC)c3o2)c(OC)c1OC | – | > 100 | – | > 100 | – | > 100 | – | > 100 | – | > 100 | – | > 100 | – | 74.9 | – | > 100 | – | > 100 | – | > 100
8 | O=[P+](O)c1cccnc1 | – | > 100 | – | > 100 | – | > 100 | – | > 100 | – | > 100 | – | > 100 | – | > 100 | – | > 100 | – | > 100 | – | > 100
9 | CC(C)OC(=O)c1cccnc1/C=N/O | – | > 100 | – | > 100 | – | > 100 | – | > 100 | – | > 100 | – | > 100 | – | > 100 | – | > 100 | – | > 100 | – | > 100
10 | COc1cc2oc(-c3ccc(O)cc3)cc(=O)c2c(OC)c1O | – | > 100 | – | > 100 | – | > 100 | – | > 100 | – | > 100 | – | > 100 | – | > 100 | – | > 100 | – | > 100 | – | > 100
11 | O=C(NCCCl)NCc1ccccc1 | – | > 100 | – | > 100 | – | > 100 | – | > 100 | – | > 100 | – | > 100 | – | > 100 | – | > 100 | – | > 100 | – | > 100
12 | O=c1sc(-c2nc3ccccc3[nH]2)c(/N=C/c2ccccc2)n1-c1ccccc1 | – | > 100 | – | > 100 | – | > 100 | – | > 100 | – | > 100 | – | > 100 | – | > 100 | – | > 100 | – | > 100 | – | > 100
13 | N/C(=N/N=C/c1cccc(F)c1)NO | – | > 100 | – | > 100 | – | > 100 | – | > 100 | – | > 100 | – | > 100 | – | 32.4 | – | > 100 | – | > 100 | – | 41
14 | CCCCCCn1c2c(c3c(O)cccc31)C(=O)c1ccccc1-2 | 23.2 | 50 | 38.8 | > 100 | 23.7 | 58.4 | 28.7 | > 100 | 17.4 | 36.7 | 20.3 | 41.9 | 19.4 | 34.6 | 18.2 | 34.8 | 17.8 | 32.9 | 17.5 | 31.7
15 | Oc1[nH]c2ccccc2c1/C=c1/ccc2c(c1)N=C(c1cc(F)cc(F)c1)N=2 | 2.44 | 6.91 | 8.45 | 23.4 | 3.28 | 13.8 | 3.53 | 14.6 | 4.56 | 33.3 | 3.22 | 17.5 | 5.82 | 19.1 | 3.55 | 15.8 | 3.89 | 17.6 | 4.18 | 20.3
16 | Cn1c2c(c3ccccc31)CCN(CCCN1CCN(c3ccccc3)CC1)C2=O | – | 65.7 | – | 37 | – | 38.3 | – | 36.7 | – | 59.6 | – | 36.7 | – | 42.1 | – | 55.7 | – | 30.2 | – | 37.4
17 | CSCC(COC(C)=O)(CSC)c1ccncc1 | – | > 100 | – | > 100 | – | > 100 | – | > 100 | – | > 100 | – | > 100 | – | > 100 | – | > 100 | – | > 100 | – | > 100
18 | CC(=O)Nc1ccc(Cc2ccc3[nH]c(=O)cc(C)c3c2)cc1 | – | > 100 | – | > 100 | – | > 100 | – | > 100 | – | > 100 | – | > 100 | – | > 100 | – | > 100 | – | > 100 | – | > 100
19 | COc1ccc(Nc2ncccc2C(=O)NCc2cn(Cc3cccc(Oc4ccccc4)c3)nn2)c(OC)c1 | 2.08 | > 100 | 2.11 | 5.7 | 1.58 | > 100 | 4.02 | > 100 | 3.81 | > 100 | 5.33 | > 100 | 0.635 | 7.93 | 2.35 | > 100 | 3.19 | > 100 | 1.19 | > 29.6
20 | COC1/C=C/OC2(C)Oc3c(C)c(O)c4c(O)c(c(C=NOC(c5ccccc5)c5ccccc5)c(O)c4c3C2=O)NC(=O)/C(C)=C/C=C/C(C)C(O)C(C)C(O)C(C)C(OC(C)=O)C1C (stereo not given) | 0.42 | 3.62 | 1.01 | 2.06 | 2.17 | 50 | 1.8 | 8.03 | 1.56 | 4.64 | 1.16 | 3.19 | 0.805 | 1.52 | 1.35 | 3.72 | 0.975 | 1.96 | 0.935 | 1.97
21 | COc1cc([C@@H]2c3cc4c(cc3[C@@H](NC(=O)c3ccc(OC(C)=O)cc3)C3COC(=O)[C@@H]32)OCO4)cc(OC)c1O (stereo not given in full) | – | > 100 | – | 35.7 | – | 47.2 | – | 2.93 | – | 18.5 | – | 13.2 | – | 13.2 | – | 15 | – | 2.75 | – | 3.14
22 | c1ccc(N2N=NC3C4CC(C5c6ccccc6C45)C32)cc1 (stereo not given) | – | > 100 | – | > 100 | – | > 100 | – | 73.4 | – | > 100 | – | > 100 | – | 38.3 | – | > 100 | – | > 100 | – | > 100
23 | COc1cccc(/C=C2\CCc3ccccc3C2=O)c1 | 3.04 | 16.5 | 19.9 | 34.1 | 3.29 | 57.1 | 3.38 | 25.2 | 12.4 | 60.7 | 2.89 | 8.94 | 10.7 | 23 | 3.7 | 13.4 | 5.3 | 20.2 | 10.8 | 25.7
24 | O=C(c1ccccc1)c1c2n(c3c1cc(O)c1ccccc13)CCN2 | 1.99 | 4.67 | 1.8 | 3.31 | 2.56 | 8.2 | 2.06 | 4.45 | 2.7 | 7.67 | 2.42 | 6.47 | 12.1 | 25.1 | 3.47 | 14.8 | 1.78 | 3.4 | 5.15 | 17.4
25 | O=C1Nc2c(ccc(Cl)c2Cl)/C1=C\c1cc(C(F)(F)F)cc(C(F)(F)F)c1 | 0.959 | 2.58 | 1.32 | 4.84 | 1.55 | 5.97 | 2.09 | 4.68 | 5.75 | 16 | 0.115 | 1.45 | 2.67 | 8.45 | 1.66 | 6.1 | 1.15 | 3.22 | 1.77 | 7.41
